{
  "source": "patent US6613899B1",
  "about": "“Method for preventing deposits in oil extraction” (Cooperatie Cosun U.A., priority 1998, dated 2003)",
  "key": {"[1]": {"experiment": "Barium sulphate scale inhibition in presence of Fe2+ ions", "conditions": "38 mg/l Fe2+ ions, pH 5.5, 80° C., 10 hours", "procedure": "(§1) The scale-inhibiting action of CMI (DP≈10) was determined for barium sulphate. A saturated barium sulphate solution was prepared by mixing a barium chloride solution (380 mg/l) with a sodium sulphate solution (3350 mg/l) in a 1:1 ratio, with a maximum amount of barium sulphate to be formed of 210 mg/l. 5 mg/l, 10 mg/l or 15 mg/l of inhibitor was added to the solution. The pH of the solution was adjusted to 5.5 by addition of 1 ml acetate buffer (3.6 g sodium acetate trihydrate and 0.5 g acetic acid per 100 ml) per 100 ml. The solution was then left to stand at 80° C. After 10 hours the solution was filtered by suction through a 0.45 μm Millipore filter and the barium content of the filtrate was determined. The action of the inhibitor was calculated on the basis of the barium value for the experiment without inhibitor (0 per cent inhibition) and the barium value at which no precipitate was formed (100 per cent inhibition).\nExample 4 was repeated, with the exception that the barium sulphate solution contained 38 mg/l of Fe^2+ ions."}, "[2]": {"experiment": "Barium sulphate scale inhibition", "conditions": "pH 5.5, 80° C., 10 hours", "procedure": "as §1"}},
  "data": [
    {"smiles": "O=P(O)(O)CN(CCN(CP(=O)(O)O)CP(=O)(O)O)CCN(CP(=O)(O)O)CP(=O)(O)O", "note": "[Pentaphosphonate (DETPMP)]", "values": [
      {"measurement": "Inhibition (%) with 5 mg/l", "setting": "[1]; 5 mg/l inhibitor", "value": 12.0, "unit": "%"},
      {"measurement": "Inhibition (%) with 10 mg/l", "setting": "[1]; 10 mg/l inhibitor", "value": 21.5, "unit": "%"},
      {"measurement": "Inhibition (%) with 15 mg/l", "setting": "[1]; 15 mg/l inhibitor", "value": 34.5, "unit": "%"},
      {"measurement": "Inhibition (%) with 5 mg/l", "setting": "[2]; 5 mg/l inhibitor", "value": 18.0, "unit": "%"},
      {"measurement": "Inhibition (%) with 10 mg/l", "setting": "[2]; 10 mg/l inhibitor", "value": 38.5, "unit": "%"},
      {"measurement": "Inhibition (%) with 15 mg/l", "setting": "[2]; 15 mg/l inhibitor", "value": 55.5, "unit": "%"}
    ]}
  ]
}
